{"source": "DBAASP", "key": {"[1]": {"tested_on": "Escherichia coli IFO 3301", "test": "≥ marks a high value that may be exact or a test limit, other limits are often not marked, values filed in µg/mL are converted to µM"}, "[2]": {"tested_on": "Bacillus subtilis IFO 3336", "test": "≥ marks a high value that may be exact or a test limit, other limits are often not marked, values filed in µg/mL are converted to µM"}}, "data": [{"smiles": "NCC(=O)N[C@@H](Cc1cnc[nH]1)C(=O)NCC(=O)N[C@@H](Cc1cnc[nH]1)C(=O)NCC(=O)N[C@@H](Cc1cnc[nH]1)C(=O)NCC(=O)N[C@@H](Cc1cnc[nH]1)C(=O)NCC(=O)N[C@@H](Cc1cnc[nH]1)C(=O)O", "note": "[GHGHGHGHGH]", "values": [{"measurement": "MIC", "setting": "[1]", "result": "≥ 506", "unit": "µM"}, {"measurement": "MIC", "setting": "[2]", "result": "≥ 506", "unit": "µM"}]}]}
